# Source: patent US11821903B2, “Sensor” (The University of Bristol, priority 2017, dated 2023)
# Assay: Binding of reporter dye prodan to the lumen of alpha helical barrels (fluorescence titration)
# Settings: dissociation constant of prodan (1 μM) with alpha helical barrel 0.5-500 μM, up to 2 hours, fluorescent signal
# Description: The dyes 1,6-diphenyl-1,3,5-hexatriene (DPH) and 6-propionyl-2-dimethylaminonaphthalene (prodan) were assayed against a number of alpha helical barrels to determine their dissociation constants, KD. DPH or prodan (1 μM) was incubated with varying concentrations of alpha helical barrel (0.5-500 μM) for up to 2 hours, and the fluorescent signal measured at the corresponding emission wavelength.
Sequence,Kd [µM],Prodan KD
"GELKAIAQELKAIAKELKAIAWELKAIAQG [CC-Hex, forms alpha helical barrel with 6 helices]",> 500,did not bind
"GKIEQILQKIEKILQKIEWILQKIEQILQG [CC-Pent, forms alpha helical barrel with 5 helices]",> 500,did not bind
